From paper PMC5487340, “Peptides derived from MARCKS block coagulation complex assembly on phosphatidylserine” (Scientific Reports, 2017)

B1: annexin V: PS binding protein, positive control (protein)
chain: MAQVLRGTVTDFPGFDERADAETLRKAMKGLGTDEESILTLLTSRSNAQRQEISAAFKTLFGRDLLDDLKSELTGKFEKLIVALMKPSRLYDAYELKHALKGAGTNEKVLTEIIASRTPEELRAIKQVYEEEYGSSLEDDVVGDTSGYYQRMLVVLLQANRDPDAGIDEAQVEQDAQALFQAGELKWGTDEEKFITIFGTRSVSHLRKVFDKYMTISGFQIEETIDRETSGNLEQLLLAVVKSIRSIPAYLAETLYYAMKGAGTDDHTLIRVMVSRSEIDLFNIRKEFRKNFATSLYSMIKGDTSGDYKKALLLLCGEDD

Key:
[1] = tested on: prothrombinase (bovine FXa and FVa) on washed human platelets activated by convulxin and thrombin; test: Platelet-dependent prothrombinase assay; format: biochemical; details: 1 μM, washed human platelets with convulxin and thrombin, thrombin Vmax with S-2238, n = 8
Procedure: Human whole blood was collected from healthy volunteers by venipuncture into 3.2% sodium citrate. Washed platelets were prepared from whole blood collected by venipuncture into 3.8% sodium citrate and acid-citrate-dextrose (ACD). Platelet-rich plasma (PRP) was prepared by centrifugation of whole blood at 200 g for 20 min. Platelets were isolated from the PRP by centrifugation at 1000 g for 10 min with 0.1 μg ml^−1 prostacyclin (PGI2) (Sigma-Aldrich). The resulting pellet was resuspended with modified Tyrode’s buffer (129 mM NaCl, 20 mM HEPES, 12 mM NaHCO3, 2.9 mM KCl, 1.0 mM MgCl2, 0.34 mM Na2HPO4, 5 mM glucose, pH 7.3), ACD, and 0.1 μg ml^−1 PGI2. Platelets were then washed by re-pelleting at 1000 g for 10 min and re-suspending with modified Tyrode’s buffer.
Effects on coagulation factor enzymatic activity were determined using a modification of a previously described prothrombinase assay, [55]. Washed human platelets (8 × 10^5 reaction^−1) were incubated at 37 °C with either a buffer blank or 375 ng ml^−1 convulxin (Centerchem, Norwalk, CT) and 5.0 nM thrombin (Haematologic Technologies) in modified Tyrode’s buffer containing 2.9 mM CaCl2 and 0.05% wt vol^−1 fatty acid-free bovine serum albumin (BSA). After 7 min, 1 μM investigational peptide or protein, or a buffer blank, was added, followed 3 min later by bovine FXa (3 nM) and FVa (6 nM) (Haematologic Technologies). […]

[2] = tested on: fibrin formation in whole human blood; test: Whole blood microfluidic flow assay; format: cell-based; details: whole human blood over collagen, 10 min, wall shear rate 100 s^-1, 1 μM peptide or annexin V, heparin 15 USP ml^-1, n = 6
From the text: Effects on whole blood platelet activation and accumulation, as well as fibrin formation, were examined using a modification of a previously described microfluidic flow assay. A custom polydimethylsiloxane microfluidic flow device containing four channels, each with a height of 100 μm and width of 500 μm, was vacuum mounted to a glass slide patterned with a type I fibrillar collagen strip (Chrono-log). The microfluidic flow device channels were oriented perpendicular to the patterned collagen strip, resulting in a 50 μm patch of collagen across the width of each channel. Whole blood was labeled with a Pacific Blue anti-human CD41 antibody (BioLegend) for 10 min, followed by the addition of 30 μg ml^−1 Alexa Fluor 647 human plasma fibrinogen conjugate (Life Technologies) and either 1 μM NBD labeled investigational peptide, 1 μM annexin V (BioVision), or 15 USP ml^−1 heparin. Immediately before the assay, the whole blood mixture was recalcified to 7.5 mM CaCl2. The whole blood was then pulled through the device channels for 10 min at wall shear rate 100 s^−1 using a PhD Ultra syringe pump (Harvard Apparatus, Holliston, MA). […] Fluorescence intensities and platelet surface area coverages were measured using ImageJ (NIH, Bethesda, MD). […]

[3] = tested on: P-selectin positive platelets; test: Flow cytometry of binding to platelets; format: cell-based; details: washed human platelets, 1 μM NBD labeled peptide, 30 min, n = 6
Procedure: Human whole blood was collected from healthy volunteers by venipuncture into 3.2% sodium citrate. Washed platelets were prepared from whole blood collected by venipuncture into 3.8% sodium citrate and acid-citrate-dextrose (ACD). Platelet-rich plasma (PRP) was prepared by centrifugation of whole blood at 200 g for 20 min. Platelets were isolated from the PRP by centrifugation at 1000 g for 10 min with 0.1 μg ml^−1 prostacyclin (PGI2) (Sigma-Aldrich). The resulting pellet was resuspended with modified Tyrode’s buffer (129 mM NaCl, 20 mM HEPES, 12 mM NaHCO3, 2.9 mM KCl, 1.0 mM MgCl2, 0.34 mM Na2HPO4, 5 mM glucose, pH 7.3), ACD, and 0.1 μg ml^−1 PGI2. Platelets were then washed by re-pelleting at 1000 g for 10 min and re-suspending with modified Tyrode’s buffer. Washed platelets were obtained from the whole blood as described above. The platelets were resuspended in modified Tyrode’s buffer containing 2 mM CaCl2, counted, and diluted to 2 × 10^4 platelets μL^−1. Platelets were stimulated with either 1 IU ml^−1 thrombin (Chrono-log, Havertown, PA), 250 ng ml^−1 convulxin (Centerchem), 1 IU ml^−1 thrombin and 250 ng ml^−1 convulxin, or left unstimulated for 10 min at room temperature. […] The samples were then immediately fixed in 1% paraformaldehyde, diluted, and analyzed on a MoFlo Astrios EQ flow cytometer (Beckman Coulter, Brea, CA) with appropriate color compensation.

Molecule	reduction in prothrombinase activity [1] [%]	fibrin formation on adherent platelets (in words) [2]	labeling of unstimulated platelets [3]
H-GGDYDKIGKNDA-NH2 [C2BL3-L, NH2-GGDYDKIGKNDA-CONH2]	17		
heparin		equivalent fibrin formation inhibition to that of the MARCKS ED peptides	
B1		equivalent fibrin formation inhibition to that of the MARCKS ED peptides	Neither D-MARCKS ED nor annexin V labeled the unstimulated platelets
